According to publication PMC12078333, “Pharmacokinetic evaluation and bioavailability of KPT-335 (Verdinexor) in cats” (Frontiers in Veterinary Science, 2025):
Values joined by “and” are separate entries in the source; they are usually repeats but may differ in a detail not shown here. Equal values may be shown once. Read-outs that look alike come from different tables or passages of the source.

Experiment: Pharmacokinetics study of KPT-335 in cats (i.v. injection, p.o. capsules and tablets; UPLC-MS/MS, non-compartmental analysis)
Format: in vivo
Settings: cats; for bioavailability / k el / Tmax / MRT last / AUC(0-inf) / AUC(0-t) / Cmax: both sexes, plasma, po; for k el: read-out: Lambda_z (converted); for Tmax: read-out: Tmax; for AUC(0-inf): read-out: AUCINF_obs; for AUC(0-t): read-out: AUClast; for Cmax: read-out: Cmax; for Plasma concentration: individual cats 1-6
Description: In this study, a parallel trial design was employed, 42 adult domestic cats (21 males and 21 females), aged 1 to 2 years and weighing 2.5 ± 0.25 kg. Cats were grouped by random number, with half male and female in each group, and all cats were determined to be systemically healthy during an initial screening visit 1 week prior to the experiment. They were acclimatized to the laboratory environment for 7 days before the study commenced. During this period, they were kept in solitary cages with free access to water. Cats in the fasting group were deprived of food for 12 h prior to and 2 h following drug administration, while those in the feeding group were fed twice a day. Food and water sources were consistent throughout the trail. During and at the end of the experiment, we systematically assessed the adverse reactions by recording parameters such as body weight, behavior, and coat gloss in all test cats both before and after the trial. These observations were conducted to evaluate whether any adverse reactions occurred. All procedures were reviewed and approved by the Institutional Animal Care and Use Committee of China Agricultural University (11305-23-E-002).
The UPLC-MS/MS system utilized a UPLC 1290 (Agilent) paired with a Phenomenex Kinetex C18 column (50 mm × 2.1 mm, 2.6 μm) for separation at a flow rate of 0.3 mL/min. The chromatographic mobile phase comprised water (A) and acetonitrile (B), both containing 0.1% formic acid. The gradient elution program was as follows: from 0.5 to 2.5 min, 10 to 95% B; from 2.5 to 4.5 min, 95% B; from 4.5 to 4.6 min, 95 to 10% B; and from 4.6 to 6.0 min, 10% B. The injection volume was 2 μL.
For mass spectrometry, an Agilent 6,475-LC-TQ equipped with an electrospray ion source was used. Multiple Reaction Monitoring (MRM) was selected to quantify KPT-335 in the positive ion mode. The ion transitions monitored were m/z 443.1 → 334.0 and 443.1 → 110.1 for KPT-335, and m/z 444.1 → 334.0 for the internal standard (IS). The cone voltage and collision energy were optimized for KPT-335 and the IS individually, set at 160 V and 25 eV, respectively. The optimized parameters for the instrument included an ion source temperature of 350°C, solvent removal temperature of 320°C, capillary voltage of 3.0 kV, and a solvent gas flow rate of 300 L/h.
The method was developed based on prior research conducted in the laboratory ([16]) and validated in accordance with international guidelines ([17]). The calibration concentration range for KPT-335 spanned from 0.5 to 100 ng/mL, with a lower limit of quantification (LLOQ) set at 0.5 ng/mL. The squared correlation coefficient (R^2) values exceeded 0.999, indicating high linearity.
For sample preparation, 100 μL of plasma was mixed with 10 μL of internal standard (IS) and 900 μL of acetonitrile, followed by vortexing for 2 min. The mixture was then centrifuged at 13,400 × g at 4°C for 10 min. The supernatant was filtered through a 0.22 μm organic membrane, and the resulting sample was analyzed using UPLC-MS/MS.
Cats were divided into seven groups, with six cats in each group. In the intravenous (i.v.) group (Group 1), cats received an injection of KPT-335 at a dosage of 1 mg/kg body weight (BW), administered via a bolus through a venous infusion needle. For the oral (p.o.) administration, cats were given capsules in a fasting state at doses of 0.2 mg/kg BW (Group 2), 1 mg/kg BW (Group 3), and 2 mg/kg BW (Group 4). Additionally, tablets were administered at 1 mg/kg BW (fasting, Group 5), 1 mg/kg BW (Group 6), and 2 mg/kg BW (Group 7) in a feeding state, followed by 3 mL of water delivered with a syringe.
For the p.o. administration, blood samples of 1.5 mL were collected via the brachial cephalic vein prior to administration and at 0.167, 0.333, 0.5, 0.75, 1, 1.5, 2, 4, 6, 8, 12, 24, 32, and 48 h post-administration. […]

[1] = 0.2 mg/kg, p.o., Capsule, Fasting, 0.2 mg/kg BW
[2] = 1 mg/kg, p.o., Capsule, Fasting, 1 mg/kg BW
[3] = 1 mg/kg, p.o., Tablet, Fasting, 1 mg/kg BW
[4] = 1 mg/kg, p.o., Tablet, Feeding, 1 mg/kg BW
[5] = 2 mg/kg, p.o., Capsule, Fasting, 2 mg/kg BW
[6] = 2 mg/kg, p.o., Tablet, Feeding, 2 mg/kg BW
[7] = capsule group, 0.2–2 mg/kg BW, reference 95% CI 0.90–1.10

`O=C(/C=C\n1cnc(-c2cc(C(F)(F)F)cc(C(F)(F)F)c2)n1)NNc1ccccn1` [KPT-335] gave a bioavailability (0.2 mg/kg, p.o., Capsule, Fasting, 0.2 mg/kg BW, read-out: F (absolute bioavailability)) of 43.7%, a k el [1] of 3.33e-05 s⁻¹ and a Tmax [1] of 2.46 ± 2.75 h. It also gave an MRT last (1 mg/kg, Capsule, Fasting, 1 mg/kg BW) of 5.94 ± 1.05 h, an MRT last (1 mg/kg, Tablet, Fasting, 1 mg/kg BW) of 8.07 ± 1.73 h and an MRT last (1 mg/kg, Tablet, Feeding, 1 mg/kg BW) of 5.8 ± 1.61 h. For the same compound, the bioavailability (1 mg/kg, doses of 1 mg/kg BW, read-out: bioavailability of commercial tablets) was about 70%, the AUC(0-inf) [2] was 1420 ± 490 ng·h/mL and the AUC(0-t) [2] was 1420 ± 489 ng·h/mL. For the same compound, the Cmax [2] was 260 ± 75 ng/mL, the bioavailability (1 mg/kg, p.o., Capsule, Fasting, 1 mg/kg BW, read-out: F (absolute bioavailability)) was 44.7% and the k el [2] was 3.61e-05 s⁻¹. For the same compound, the Tmax [2] was 1.25 ± 0.39 h, the AUC(0-inf) [3] was 2430 ± 805 ng·h/mL and the AUC(0-t) [3] was 2410 ± 793 ng·h/mL. The Cmax [3] was 264 ± 129 ng/mL, the bioavailability (1 mg/kg, p.o., Tablet, Fasting, 1 mg/kg BW, read-out: F (absolute bioavailability)) was 75.9% and the k el [3] was 3.61e-05 s⁻¹. The Tmax [3] was 1.79 ± 1.17 h, the AUC(0-inf) [4] was 2270 ± 1260 ng·h/mL and the AUC(0-t) [4] was 2250 ± 1260 ng·h/mL. For the same compound, the Cmax [4] was 364 ± 145 ng/mL, the bioavailability (1 mg/kg, p.o., Tablet, Feeding, 1 mg/kg BW, read-out: F (absolute bioavailability)) was 71% and the k el [4] was 5e-05 s⁻¹. It also gave a Tmax [4] of 1.33 ± 0.41 h, an MRT last (2 mg/kg, Capsule, Fasting, 2 mg/kg BW) of 7.57 ± 1.94 h and an MRT last (2 mg/kg, Tablet, Feeding, 2 mg/kg BW) of 5.07 ± 0.69 h. The AUC(0-inf) [5] was 1850 ± 819 ng·h/mL, the AUC(0-t) [5] was 1840 ± 819 ng·h/mL and the Cmax [5] was 280 ± 175 ng/mL. The bioavailability (2 mg/kg, p.o., Capsule, Fasting, 2 mg/kg BW, read-out: F (absolute bioavailability)) was 28.9%, the k el [5] was 2.78e-05 s⁻¹ and the Tmax [5] was 1.58 ± 0.38 h. It also gave an AUC(0-inf) [6] of 3010 ± 715 ng·h/mL, an AUC(0-t) [6] of 3000 ± 711 ng·h/mL and a Cmax [6] of 559 ± 104 ng/mL. For the same compound, the bioavailability (2 mg/kg, p.o., Tablet, Feeding, 2 mg/kg BW, read-out: F (absolute bioavailability)) was 47.3%, the k el [6] was 5.83e-05 s⁻¹ and the Tmax [6] was 1.58 ± 0.2 h. The bioavailability (doses of 0.2–1 mg/kg BW, read-out: absolute bioavailability of capsules) was about 40%, the “dose linearity of pharmacokinetics” value (0.2–2 mg/kg BW dosage range) was “not to exhibit linear pharmacokinetics” and the “differences in pharmacokinetic parameters (Cmax and AUClast) between male and female cats” value (all groups) was “no statistically significant differences”. The “95% confidence interval of β, dose vs AUClast” value [7] was 0.63–1.11, the “95% confidence interval of β, dose vs Cmax” value [7] was 0.79–1.30 and the Plasma concentration (capsule p.o. 0.2 mg/kg BW, 1.5 h, 0.2 mg/kg, in ng/mL) was 15.20 and 20.46 and 38.22 and 14.31 and 22.72 and 26.72. The Plasma concentration (capsule p.o. 0.2 mg/kg BW, 2 h, 0.2 mg/kg, in ng/mL) was 13.60 and 18.16 and 33.66 and 26.22 and 20.79 and 22.21, the Plasma concentration (capsule p.o. 0.2 mg/kg BW, 4 h, 0.2 mg/kg) was 8.71 ng/mL and the Plasma concentration (capsule p.o. 0.2 mg/kg BW, 4 h, 0.2 mg/kg, in ng/mL) was 14.86 and 24.97 and 21.41 and 17.43 and 19.90. The Plasma concentration (capsule p.o. 0.2 mg/kg BW, 6 h, 0.2 mg/kg) was 6.19 ng/mL, the Plasma concentration (capsule p.o. 0.2 mg/kg BW, 6 h, 0.2 mg/kg, in ng/mL) was 20.30 and 16.23 and 18.02 and 15.34 and the Plasma concentration (capsule p.o. 0.2 mg/kg BW, 32 h, 0.2 mg/kg) was “BLOQ”. For the same compound, the Plasma concentration (capsule p.o. 0.2 mg/kg BW, 48 h) was “BLOQ”, the Plasma concentration (capsule p.o. 1 mg/kg BW, 48 h, 1 mg/kg) was “BLOQ” and the Plasma concentration (i.v. 1 mg/kg BW, 0.083 h, 1 mg/kg, in ng/mL) was 1162.77 and 332.48 and 914.52 and 894.65 and 827.83 and 934.74. For the same compound, the Plasma concentration (i.v. 1 mg/kg BW, 0.167 h, 1 mg/kg, in ng/mL) was 1202.33 and 331.12 and 812.32 and 891.11 and 808.43 and 825.26, the Plasma concentration (i.v. 1 mg/kg BW, 0.25 h, 1 mg/kg, in ng/mL) was 1058.99 and 320.82 and 769.91 and 863.19 and 750.36 and 838.90 and the Plasma concentration (i.v. 1 mg/kg BW, 0.33 h, 1 mg/kg, in ng/mL) was 996.69 and 292.96 and 774.12 and 852.52 and 723.28 and 760.14. For the same compound, the Plasma concentration (i.v. 1 mg/kg BW, 0.5 h, 1 mg/kg, in ng/mL) was 935.15 and 297.11 and 736.77 and 700.75 and 649.99 and 680.18 and the Plasma concentration (i.v. 1 mg/kg BW, 0.75 h, 1 mg/kg, in ng/mL) was 709.09 and 236.62 and 633.10 and 524.38 and 509.94 and 541.50.
